Reference: US20150265682A1, “THERAPEUTIC METHODS AND COMPOSITIONS FOR TREATING DIABETES” (Orient Europharma Co., Ltd., priority 2014, published 2015)

Tested on: IR, Akt and GLUT2 in liver of T1DM mice
Assay: Western blot of IR-related signaling mediators in liver after 7-day borapetoside C, alone or with insulin
Assay type: in vivo, ICR mice
Experimental: T1DM mice were induced by a known method. In brief, an intraperitoneal injection of streptozotocin (STZ; Sigma Chemical Co.; St. Louis, Mo.) at 150 mg/kg was performed in mice that were fasted for 48 h. The induction of T1DM was assessed and confirmed when the mice had plasma glucose levels ≧350 mg/dL, accompanied with polyuria, hyperphagia and decreased body weight. The control mice group received an injection of vehicle and then carried out for 4 weeks. T2DM mice were induced by maintaining on a fat-rich chow diet and fructose-sweetened water for 4 weeks from the age of 4-5 weeks according to previous methods. The induction T2DM mice were assessed by measuring fasting plasma glucose levels and confirmed when plasma glucose level was ≧150 mg/dL after a 4-week induction.
After treatment, the mice were sacrificed by cervical dislocation under anesthesia.
The liver was immediately frozen in liquid nitrogen. The liver tissue was preserved at −80° C. before they were used for further assays.
Tissues were homogenized in T-PER® Tissue Protein Extraction Reagent (Pierce Biotechnology, Rockford, Ill.) with Halt™ Protease Inhibitor Single-Use Cocktail (Pierce Biotechnology, Rockford, Ill.). Liver homogenates were prepared by mechanical homogenization (Polytron PT3100, Luzernerstrasse, Switzerland). After centrifuging the homogenates at 10,000 g for 30 min, the supernatants were collected and frozen at −80° C. for further use. The protein concentrations were determined by using a BCA Protein Assay Kit (Pierce Biotechnology, Rockford, Ill.). For western blot analysis, about 60 μg of protein preparations were applied on 10% sodium dodecyl sulfate-polyacrylamide gel electrophoresis and then transferred to polyvinylidene difluoride membranes (Millipore, Billerica, Mass.). The membranes were blocked with 5% (w/v) non-fat dry milk in phosphate buffered saline (PBS) containing 0.1% Tween 20 (PBS-T). After blocking, the blotted membrane was incubated with anti-phospho-insulin receptor β (IRβ) (Tyr^1345), phospho-Akt (Ser^473) (Cell Signaling Technology, Beverly, Mass.), anti-IRβ, Akt, β-Actin (Santa Cruz Biotechnology, Santa Cruz, Calif.), and anti-GLUT2 antibodies (Abcam, Cambridge, UK) in presence of 3% bovine serum albumin (BSA) in PBS-T buffer. Following the incubation, the membranes were washed 3 times with PBS-T for 15 min each and then incubated with the appropriate peroxidase-conjugated secondary antibodies (Santa Cruz. Biotechnology, USA) in PBS-T. After removal of the secondary antibody, blots were washed and developed using the enhanced chemiluminescenece (ECL) western blotting system (Millipore, Billerica, Mass.). The density of the protein bands were quantified using ImageQuant.

[1] = borapetoside C 0.1 mg/kg twice daily, alone or with insulin 1.0 IU/kg twice daily
[2] = borapetoside C 5.0 mg/kg vs insulin 0.5 IU/kg twice daily

COC(=O)C1=CCC[C@H]2[C@]3(C)C[C@@H](c4ccoc4)OC(=O)[C@@H]3C[C@@H](O[C@@H]3O[C@H](CO)[C@@H](O)[C@H](O)[C@H]3O)[C@@]12C [Borapetoside C, borapetoside C]
expression of GLUT2 in liver (5.0 mg/kg twice daily): increased
level of phosphorylated Akt in liver (5.0 mg/kg twice daily): increased
level of phosphorylated IR in liver (5.0 mg/kg twice daily): increased
GLUT2 in liver vs vehicle-treated [1]: not significantly increased
serine phosphorylation of Akt in liver vs vehicle-treated [1]: not significantly increased
tyrosine phosphorylation of IR in liver vs vehicle-treated [1]: not significantly increased
phosphorylation of Akt and GLUT2 expression compared with the effect of insulin [2]: less phosphorylation of Akt and GLUT2 expression
phosphorylation of IR compared with the effect of insulin [2]: more phosphorylation of IR
